From article PMC9447987, “Long-term memory CD8^+ T cells specific for SARS-CoV-2 in individuals who received the BNT162b2 mRNA vaccine” (Nature Communications, 2022)
Like-named read-outs stand apart in the source and are kept apart here.

Experiments:
[1] = system: HLA-A*24:02-restricted CD8+ T cells; type: cell-based, human; conditions: for IFN-γ-producing cells among CD8+ T cells (Fig. 1f): bulk T cells
HLA-A*24:02 = HLA-A*24:02 (Homo sapiens, UniProt P04439, D101N/D140Y/D185E/E176V/E190D/F33S/G103R/G107R/I119L/I121M/I306V/K335N/L105A/L180Q/L300P/N151K/N90K/Q86E/Q94H/R106L/R138H/R89G/T104I/T345S/V100E/W191G/Y123F); experiment: HLA stabilization assay using RMA-S-A2402 cells; type: binding; conditions: RMA-S-A2402 cells
[2] = 14 vaccinated individuals, second time point 11–22 weeks after the first point of analysis

## VYSSANNCTF [S-VYF10]
[1]; [2]
  number of individuals with specific T cells at both time points: two
  number of individuals with specific T cells at only the first time point: one
[1]; Fig.6a, donor U-32, 1.430 weeks since 2nd dose of vaccination
  IFNg-producing cells among CD8 T cells (%): 0.080%
[1]; Fig.6a, donor U-32, 15.290 weeks since 2nd dose of vaccination
  IFNg-producing cells among CD8 T cells (%): 0.000%
[1]; Fig.6a, donor V1, 19.000 weeks since 2nd dose of vaccination
  IFNg-producing cells among CD8 T cells (%): 0.000%
[1]; Fig.6a, donor V1, 31.710 weeks since 2nd dose of vaccination
  IFNg-producing cells among CD8 T cells (%): 0.710%
[1]; Fig.6a, donor V2, 9.570 weeks since 2nd dose of vaccination
  IFNg-producing cells among CD8 T cells (%): 0.330%
[1]; Fig.6a, donor V2, 31.570 weeks since 2nd dose of vaccination
  IFNg-producing cells among CD8 T cells (%): 0.000%
[1]; Fig.6a, donor V5, 10.570 weeks since 2nd dose of vaccination
  IFNg-producing cells among CD8 T cells (%): 0.000%
[1]; Fig.6a, donor V5, 31.710 weeks since 2nd dose of vaccination
  IFNg-producing cells among CD8 T cells (%): 1.030%
[1]; Fig.6a, donor V6, 9.570 weeks since 2nd dose of vaccination
  IFNg-producing cells among CD8 T cells (%): 0.590%
[1]; Fig.6a, donor V6, 31.000 weeks since 2nd dose of vaccination
  IFNg-producing cells among CD8 T cells (%): 0.930%
[1]; Fig.6a, donor V7, 10.140 weeks since 2nd dose of vaccination
  IFNg-producing cells among CD8 T cells (%): 0.000%
[1]; Fig.6a, donor V7, 31.140 weeks since 2nd dose of vaccination
  IFNg-producing cells among CD8 T cells (%): 0.470%
[1]; Fig.6a, donor V8, 9.860 weeks since 2nd dose of vaccination
  IFNg-producing cells among CD8 T cells (%): 0.000%
[1]; Fig.6a, donor V8, 30.140 weeks since 2nd dose of vaccination
  IFNg-producing cells among CD8 T cells (%): 0.160%
[1]; Fig.6a, donor V9, 20.570 weeks since 2nd dose of vaccination
  IFNg-producing cells among CD8 T cells (%): 0.000%
[1]; Fig.6a, donor V9, 31.570 weeks since 2nd dose of vaccination
  IFNg-producing cells among CD8 T cells (%): 0.930%
[1]; Fig.6a, donor V12, 1.000 weeks since 2nd dose of vaccination
  IFNg-producing cells among CD8 T cells (%): 0.000%
[1]; Fig.6a, donor V12, 9.290 weeks since 2nd dose of vaccination
  IFNg-producing cells among CD8 T cells (%): 0.000%
[1]; Fig.6a, donor V13, 9.000 weeks since 2nd dose of vaccination
  IFNg-producing cells among CD8 T cells (%): 2.650%
[1]; Fig.6a, donor V13, 30.290 weeks since 2nd dose of vaccination
  IFNg-producing cells among CD8 T cells (%): 3.770%
[1]; Fig.6a, donor V14, 2.000 weeks since 2nd dose of vaccination
  IFNg-producing cells among CD8 T cells (%): 1.600%
[1]; Fig.6a, donor V14, 17.000 weeks since 2nd dose of vaccination
  IFNg-producing cells among CD8 T cells (%): 1.540%
[1]; Fig.6a, donor V15, 6.860 weeks since 2nd dose of vaccination
  IFNg-producing cells among CD8 T cells (%): 0.000%
[1]; Fig.6a, donor V15, 25.860 weeks since 2nd dose of vaccination
  IFNg-producing cells among CD8 T cells (%): 0.380%
[1]; Fig.6a, donor V16, 8.860 weeks since 2nd dose of vaccination
  IFNg-producing cells among CD8 T cells (%): 1.180%
[1]; Fig.6a, donor V16, 22.710 weeks since 2nd dose of vaccination
  IFNg-producing cells among CD8 T cells (%): 0.000%
[1]; Fig.6a, donor V17, 4.140 weeks since 2nd dose of vaccination
  IFNg-producing cells among CD8 T cells (%): 0.000%
[1]; Fig.6a, donor V17, 18.000 weeks since 2nd dose of vaccination
  IFNg-producing cells among CD8 T cells (%): 0.000%
[1]; convalescent donor C2, 45.290 weeks since PCR-confirmed diagnosis, […], peptide-pulsed C1R-A2402
  IFNg-producing cells among CD8 T cells (%): 1.019%
[1]; convalescent donor C3, 2.430 weeks since PCR-confirmed diagnosis, […], peptide-pulsed C1R-A2402
  IFNg-producing cells among CD8 T cells (%): 0.261%
[1]; convalescent donor C4, 35.000 weeks since PCR-confirmed diagnosis, […], peptide-pulsed C1R-A2402
  IFNg-producing cells among CD8 T cells (%): 0.317%
[1]; convalescent donor C5, 41.430 weeks since PCR-confirmed diagnosis, […], peptide-pulsed C1R-A2402
  IFNg-producing cells among CD8 T cells (%): 0.327%
[1]; convalescent donor C6, 20.000 weeks since PCR-confirmed diagnosis, […], peptide-pulsed C1R-A2402
  IFNg-producing cells among CD8 T cells (%): 1.170%
[1]; convalescent donor C7, 21.710 weeks since PCR-confirmed diagnosis, […], peptide-pulsed C1R-A2402
  IFNg-producing cells among CD8 T cells (%): 0.230%
[1]; convalescent donor C8, 47.860 weeks since PCR-confirmed diagnosis, […], peptide-pulsed C1R-A2402
  IFNg-producing cells among CD8 T cells (%): 0.410%
[1]; convalescent donor C9, 21.860 weeks since PCR-confirmed diagnosis, […], peptide-pulsed C1R-A2402
  IFNg-producing cells among CD8 T cells (%): 0.000%
[1]; convalescent donor C10, 24.570 weeks since PCR-confirmed diagnosis, […], peptide-pulsed C1R-A2402
  IFNg-producing cells among CD8 T cells (%): 1.220%
[1]; convalescent donor C11, 24.290 weeks since PCR-confirmed diagnosis, […], peptide-pulsed C1R-A2402
  IFNg-producing cells among CD8 T cells (%): 0.000%
[1]; donor V10, 0 weeks since 1st dose of vaccination, C1R-A2402 pre-pulsed with 1 μM peptide
  IFN-γ-producing cells among CD8+ T cells (Fig. 1f): 1.450%
[1]; donor V10, 3 weeks since 1st dose of vaccination, C1R-A2402 pre-pulsed with 1 μM peptide
  IFN-γ-producing cells among CD8+ T cells (Fig. 1f): 0.420%
[1]; donor V10, 5 weeks since 1st dose of vaccination, C1R-A2402 pre-pulsed with 1 μM peptide
  IFN-γ-producing cells among CD8+ T cells (Fig. 1f): 0.290%
[1]; donor V10, 7 weeks since 1st dose of vaccination, C1R-A2402 pre-pulsed with 1 μM peptide
  IFN-γ-producing cells among CD8+ T cells (Fig. 1f): 0.000%
[1]; donor V12, 0 weeks since 1st dose of vaccination, C1R-A2402 pre-pulsed with 1 μM peptide
  IFN-γ-producing cells among CD8+ T cells (Fig. 1f): 0.310%
[1]; donor V12, 3 weeks since 1st dose of vaccination, C1R-A2402 pre-pulsed with 1 μM peptide
  IFN-γ-producing cells among CD8+ T cells (Fig. 1f): 0.000%
[1]; donor V12, 5 weeks since 1st dose of vaccination, C1R-A2402 pre-pulsed with 1 μM peptide
  IFN-γ-producing cells among CD8+ T cells (Fig. 1f): 0.540%
[1]; donor V12, 7 weeks since 1st dose of vaccination, C1R-A2402 pre-pulsed with 1 μM peptide
  IFN-γ-producing cells among CD8+ T cells (Fig. 1f): 0.000%
[1]; donor V14, 0 weeks since 1st dose of vaccination, C1R-A2402 pre-pulsed with 1 μM peptide
  IFN-γ-producing cells among CD8+ T cells (Fig. 1f): 0.000%
[1]; donor V14, 2 weeks since 1st dose of vaccination, C1R-A2402 pre-pulsed with 1 μM peptide
  IFN-γ-producing cells among CD8+ T cells (Fig. 1f): 0.000%
[1]; donor V14, 5 weeks since 1st dose of vaccination, C1R-A2402 pre-pulsed with 1 μM peptide
  IFN-γ-producing cells among CD8+ T cells (Fig. 1f): 1.580%
[1]; donor V14, 7 weeks since 1st dose of vaccination, C1R-A2402 pre-pulsed with 1 μM peptide
  IFN-γ-producing cells among CD8+ T cells (Fig. 1f): 0.000%
[1]; longitudinal analysis of 3 vaccinated individuals
  number of individuals with specific T cells after the second vaccine dose: one
[1]; of 17 vaccinated HLA-A*24:02+ individuals (Fig. 4b)
  Freq of responder (%): 23.5%
[1]; vaccinated donor V1, 19.000 weeks since 2nd dose, […], C1R-A2402 pre-pulsed with 1 μM peptide
  IFNg-producing cells among CD8 T cells (%): 0%
[1]; vaccinated donor V2, 9.570 weeks since 2nd dose, […], C1R-A2402 pre-pulsed with 1 μM peptide
  IFNg-producing cells among CD8 T cells (%): 0.331%
[1]; vaccinated donor V3, 8.860 weeks since 2nd dose, […], C1R-A2402 pre-pulsed with 1 μM peptide
  IFNg-producing cells among CD8 T cells (%): 0.073%
[1]; vaccinated donor V4, 10.430 weeks since 2nd dose, […], C1R-A2402 pre-pulsed with 1 μM peptide
  IFNg-producing cells among CD8 T cells (%): 2.41%
[1]; vaccinated donor V5, 10.570 weeks since 2nd dose, […], C1R-A2402 pre-pulsed with 1 μM peptide
  IFNg-producing cells among CD8 T cells (%): 0%
[1]; vaccinated donor V6, 9.570 weeks since 2nd dose, […], C1R-A2402 pre-pulsed with 1 μM peptide
  IFNg-producing cells among CD8 T cells (%): 0.593%
[1]; vaccinated donor V7, 10.140 weeks since 2nd dose, […], C1R-A2402 pre-pulsed with 1 μM peptide
  IFNg-producing cells among CD8 T cells (%): 0%
[1]; vaccinated donor V8, 9.860 weeks since 2nd dose, […], C1R-A2402 pre-pulsed with 1 μM peptide
  IFNg-producing cells among CD8 T cells (%): 0%
[1]; vaccinated donor V9, 20.570 weeks since 2nd dose, […], C1R-A2402 pre-pulsed with 1 μM peptide
  IFNg-producing cells among CD8 T cells (%): 0%
[1]; vaccinated donor V10, 2.000 weeks since 2nd dose, […], C1R-A2402 pre-pulsed with 1 μM peptide
  IFNg-producing cells among CD8 T cells (%): 0.3%
[1]; vaccinated donor V11, 1.430 weeks since 2nd dose, […], C1R-A2402 pre-pulsed with 1 μM peptide
  IFNg-producing cells among CD8 T cells (%): 0.076%
[1]; vaccinated donor V12, 1.000 weeks since 2nd dose, […], C1R-A2402 pre-pulsed with 1 μM peptide
  IFNg-producing cells among CD8 T cells (%): 0%
[1]; vaccinated donor V13, 9.000 weeks since 2nd dose, […], C1R-A2402 pre-pulsed with 1 μM peptide
  IFNg-producing cells among CD8 T cells (%): 2.649%
[1]; vaccinated donor V14, 2.000 weeks since 2nd dose, […], C1R-A2402 pre-pulsed with 1 μM peptide
  IFNg-producing cells among CD8 T cells (%): 1.601%
[1]; vaccinated donor V15, 6.860 weeks since 2nd dose, […], C1R-A2402 pre-pulsed with 1 μM peptide
  IFNg-producing cells among CD8 T cells (%): 0%
[1]; vaccinated donor V16, 8.860 weeks since 2nd dose, […], C1R-A2402 pre-pulsed with 1 μM peptide
  IFNg-producing cells among CD8 T cells (%): 1.178%
[1]; vaccinated donor V17, 4.140 weeks since 2nd dose, […], C1R-A2402 pre-pulsed with 1 μM peptide
  IFNg-producing cells among CD8 T cells (%): 0%
[1]; vaccinated individuals (8 individuals)
  time after the second vaccine dose for which epitope-specific memory CD8+ T cells were detectable / maintained: > 30 weeks
HLA-A*24:02; Suppl. Fig. 3b (for Fig. 4a, 4b), peptide(-) 14.8, 26 °C (Maximum) 32.7
  MFI, HLA-A2402 (APC), representative staining: 26.9
HLA-A*24:02; Suppl. Fig. 3c (for Fig. 4c), peptide(-) 11.7, 26 °C (Maximum) 28.9
  MFI, HLA-A2402 (APC), representative staining: 32.7
